We go through eight molecules from ChEMBL document CHEMBL6087390, “Pyridine and Pyrimidine hybrids as privileged scaffolds in antimalarial drug discovery: A recent development” (Bioorg Med Chem Lett, 2024).

Values after ≈ are worked out from the molar mass of the structure shown.

Data set [1] deals with Plasmodium falciparum. As to the kind of experiment: Antiparasitic activity against Plasmodium falciparum 3D7 assessed as reduction in parasite growth. The data set is classed as functional, organism-based.
In data set [2] the test system is Plasmodium falciparum. As to the kind of experiment: Antiplasmodial activity against multidrug resistant Plasmodium falciparum K1 assessed as reduction in parasite growth by [3H]-hypoxanthine incorporation assay. The format is functional, organism-based.
Data set [3] relates to HepG2. As to the kind of experiment: Cytotoxicity against human HepG2 cells assessed as reduction in cell viability measured for 48 hrs by MTT assay. The format is functional. On the technique in general: Tetrazolium dyes change colour on reduction, which living cells bring about.
Data set [4] is described as follows: Cytotoxicity against african green monkey Vero cells assessed as cell viability measured after 48 hrs by MTT assay. The settings on record: African green monkey (Chlorocebus sabaeus). The format is toxicity, cell-based, Chlorocebus sabaeus.
The test system of data set [5] is Plasmodium falciparum. As to the kind of experiment: Antimalarial activity against Plasmodium falciparum Dd2 assessed as reduction in parasite growth. The format is functional, organism-based.
For data set [6], the system named is Plasmodium falciparum. Put plainly: Antimalarial activity against Plasmodium falciparum NF54. The format is functional, organism-based.
A short description of data set [7]: Cytotoxicity against human HFF cells assessed as inhibition of cell viability measured after 48 hrs by MTT assay. The data set is classed as toxicity, cell-based.
Data set [8] relates to Plasmodium falciparum. As to the kind of experiment: microbe, parasite or virus in culture. Particulars: W2.
In data set [9] the test system is Plasmodium falciparum. As to the kind of experiment: Antiparasitic activity against Plasmodium falciparum. The data set is classed as functional, organism-based.
Data set [10] concerns Plasmodium falciparum. Put plainly: microbe, parasite or virus in culture. Particulars: 3D7, 48 h.
The subject of data set [11] is HepG2. As to the kind of experiment: Cytotoxicity against human HepG2 cells assessed as reduction in cell growth. The format is functional.
Data set [12] relates to Plasmodium falciparum. Put plainly: Antiplasmodial activity against CQ-sensitive Plasmodium falciparum NF54. The data set is classed as functional, organism-based.

The EC50 is the concentration needed to bring the measured effect to its halfway point. The CC50 is the concentration that lowers cell viability or growth by half. As for `Cc1ccccc1N(C)C(=O)C(c1cncnc1)N(Cc1cccc(C(F)(F)F)c1)C1CC1` (stereo not drawn), the half-maximal effective concentration (EC50) in the data set with Plasmodium falciparum [1] amounted to 0.4 µM; in the data set with Plasmodium falciparum [2] it was 0.79 µM. The cytotoxic concentration (CC50) in the data set with HepG2 [3] was more than 30 µM.
The IC50 is the midpoint of a concentration-inhibition curve. For the molecule `Cc1nc(OCc2cn(CCNc3ccnc4cc(Cl)ccc34)nn2)nc(-c2ccccc2[N+](=O)[O-])c1C(=O)OC(C)C`, the concentration for half-maximal inhibition (IC50) at 48 h in data set [4] came out at 150 µM. The IC50 in the data set with Plasmodium falciparum [5] worked out at 0.99 µM; with Plasmodium falciparum [6] it was 0.18 µM.
For the molecule `Cc1ncc(Cn2cc(CCOC(=O)c3ccccc3)nn2)c(N)n1`, in data set [7], the concentration for half-maximal inhibition (IC50) at 48 h was more than 200 µM.
Same read-out and setting: to `Cc1ncc(Cn2cc(CCOC(=O)c3cccc(Cl)c3)nn2)c(N)n1` belongs more than 200 µM.
As to `C=C[C@H]1CN2CC[C@H]1C[C@H]2[C@H](O)c1ccnc2ccc(OC)cc12` [QUININE], the IC50 in the data set with Plasmodium falciparum [8] stood at 0.83 µM; with Plasmodium falciparum [9] it was 2.71 µM; with Plasmodium falciparum [10], 0.26 µg/mL (≈ 0.801 µM).
For the molecule `Cc1ncc(C(C(=O)N(C)c2ccccc2C)N(Cc2cccc(C(F)(F)F)c2)C2CC2)cn1` (stereo not drawn), the concentration for a half-maximal effect (EC50) was 8.1 µM in the data set on Plasmodium falciparum [1] and 9.8 µM in the data set on Plasmodium falciparum [2]. Moreover, the CC50 in the data set on HepG2 [3] was more than 30 µM.
On to `Cc1nc(OCc2cn(CCCNc3ccnc4cc(Cl)ccc34)nn2)nc(-c2ccc([N+](=O)[O-])cc2)c1C(=O)OC(C)C`, for which the IC50 in the data set on Plasmodium falciparum [5] turned out to be 4.5 µM; in the data set on Plasmodium falciparum [6], 0.04 µM.
On to `CC1(C)[C@@H](O)CC[C@]2(C)[C@H]3C(=O)CC4[C@@H]5C[C@@](C)(C(=O)OCc6cn(-c7ccc(C#N)nc7)nn6)CC[C@]5(C)CC[C@@]4(C)[C@]3(C)CC[C@@H]12` (stereo partly drawn), for which the half-maximal cytotoxic concentration (CC50) in the data set on HepG2 [11] stood at 290 µM. Further, in the data set on Plasmodium falciparum [12], 5.5 µM corresponded to half-maximal inhibition (IC50).
